US20150283239A1, “GRAPHENE DERIVATIVE-BASED COMPOSITION FOR DRUG DELIVERY AND PREPARATION METHOD THEREOF” (Research & Business Foundation SUNGKYUNKWAN UNIVERSITY, priority 2014, published 2015)

What was measured:
[1] = system: HCT116 tumors; assay: In vivo drug delivery, tumor volume in HCT116 xenograft mice; parameters: species or system Balb/c female nude mice; conditions: 14 days, intratumoral single dose 10 mg/kg
Protocol: Six (6) to seven (7)-week-old Balb/c female nude mice (weight of 21 g to 25 g) were purchased from Orient Bio Inc., (Seoul, Korea), and were maintained in a 12-hour light/12-hour darkness cycle (12:12LD) at a temperature of 22° C. to 24° C., in humidity of 40% to 60%, and with food and water ad libitum. HCT116 was trypsinized, washed twice with serum-free DMEM, and dispersed at a density of 1×10^7 cells/mL PBS. […] of the dispersed cells was subcutaneously injected into the right back region of the mice. After the tumor size reached about 150 mm^3, the mice were randomly divided into six (6) groups depending on differences in the minimum weight and tumor size. The mice were intratumorally injected with physiological saline, DGO, GQD, Cur, DGO-Cur, and GQD-Cur dispersions at a total dose of 10 mg/kg. The tumor size of each of the groups was measured by a caliper, and the tumor volume was calculated by using the following equation: tumor volume=ab^2×0.5236, where ‘a’ is the maximum diameter of tumor, and ‘b’ is the minimum diameter of tumor. Relative tumor volumes were calculated as V/V0 (V0 was the tumor volume when the treatment was initiated).
Experimental female nude mice bearing subcutaneous xenografts were divided into groups and intratumorally injected with a single dose of each of physiological saline, pure DGO and GQDs, free Cur, or DGO-Cur and GQD-Cur composites. […]

[2] = system: HCT116 cells; assay: In vitro cytotoxicity, MTT analysis; type: cell-based, Human; conditions: HCT116, 100 μg/mL, 24 hours
Protocol: Human colon cancer cells (HCT116) were maintained in a Dulbecco's modified Eagle medium (DMEM), and supplemented with 10% fetal bovine serum (FBS) and antibiotics (10,000 μg/mL streptomycin and 10,000 unit/mL penicillin) at 37° C. in a humidified atmosphere containing 5% CO2(v/v).
In vitro cytotoxicity was measured by using standard colorimetric 3-(4,5-dimethylthiazol-2-yl)-2,5-diphenyl tetrazolium bromide (MTT) analysis. For the MTT analysis, HCT116 cells were seeded in a 96-well cell-culture plate at 1×10^4/well, and cultured for 12 hours at 37° C. under 5% CO2. Thereafter, the HCT116 cells were cultured for 24 hours by using various concentrations ([…], 12.5, 25, 50, and 100 μg/mL) of GO, DGO, GQD, Cur, GO-Cur, DGO-Cur, and GQD-Cur. Next, 20 μl stock MTT (5 mg/mL) was added to each of the cells, and the cells were cultured under 5% CO2 at 37° C. for 4 hours. After the culture for additional 4 hours, the resulting formazan crystals were dissolved in dimethyl sulfoxide (DMED, 100 μl), and absorbance intensity was measured by a microplate reader at 570 nm. All the experiments were conducted in quadruplicate, and the relative cell viability (%) was expressed as a percentage relative to untreated control cells.

COc1cc(/C=C/C(=O)CC(=O)/C=C/c2ccc(O)c(OC)c2)ccc1O [Cur, Curcumin]
inhibition of tumor proliferation [1]: tumor proliferation was initially inhibited to some extent | cancer cells dead [2]: about 70%
